Assay results reported in US12351829B2, “Generation, proliferation and expansion of epithelial cells from primary tissue into mucosoid cultures” (Max-Planck-Gesellschaft zur Förderung der Wissenschaften …, priority 2018, dated 2025).

B1: BMP4: BMP pathway activator provided at 50 ng/ml to drive parietal cell lineage (protein, UniProt P12644 293-408, looked up)
Bone morphogenetic protein 4: SPKHHSQRARKKNKNCRRHSLYVDFSDVGWNDWIVAPPGYQAFYCHGDCPFPLADHLNSTNHAIVQTLVNSVNSSIPKACCVPTELSAISMLYLDEYDKVVLKNYQEMVVEGCGCR

Legend:
[1] = system: parietal cells in corpus-stomach mucosoid culture; conditions: BMP4-induced corpus mucosoid culture; 10 μl of 5 mM Histamin solution
Procedure: Specific signals are needed to drive the parietal cell lineages and in particular the activation of BMP4 and the suppression MEK/MAPK pathway.
Three corpus samples were taken at passage 4 in ALI and grown for 13 days in regular medium following by 2 weeks treatment with 50 ng/ml of BMP4 and removal of Noggin and EGF. The Corpus-gEPMs on filters were pre-incubated with […] Acridine Orange for 15 min. The filter was cut out of the insert and mounted with the cells facing the glass on a IBIDI chamber with 400 μl of media (the same with AO). A coverslip was put on top. Images were taken with 25× (Glycerol) for 10 min to stabilize the filter and avoid movements. A solution of 10 μl of 5 mM Histamin in medium was applied on the border of the coverslip while imaging. Fluorescence of acridine orange was excited at 488 nm (3-4%) and images were collected in a time series (10sec) at 500-550 nm and 600-650.

[2] = system: IL-8 expression in gastric-antrum mucosoid cultures; assay: Pro-inflammatory stimulation of gastric-antrum mucosoid cultures, IL-8 qPCR; type: cell-based, human; conditions: 10 μg/ml TNF-α or 5 μg/ml IL-1β for 3 days; +W+R and −W−R cultures
Procedure: Filters were cut out of the insert and directly transferred to a tube containing 1 ml Trizol (Thermo). After vortexing samples were incubated for 10 min at RT, vortexed again and frozen at −80° C. for long-term storage. 500 μl of chloroform was added to thawed samples before vortexing, incubation for 2 min at RT and centrifugation for 15 min at 4° C. The aqueous phase was mixed with isopropanol, inverted 6× and incubated for 10 min at RT. The sample was transferred to a total RNA isolation Kit column (Thermo) and processed according to the manufacturer's instructions. Total RNA was measured using a NanoDrop and reverse transcription carried out using the Tetro cDNA synthesis Kit (Bioline). DNA was extracted using AllPrep DNA/RNA Mini Kit (Qiagen) according to the manufacturer's instructions; Total DNA was measured using a NanoDrop. qPCR (Step One, Applied Biosystem) was performed using the SensiMix™ SYBR® hi-ROX Kit (Bioline, 3-step cycling according to the manufacturer).
FIG. 16. Antral mucosoid cultures derived from 3 different patients were cultivated for 13 days. Parallel samples were differentiated by excluding Wnt3A and RSPO1 from the culture for 5 days (A)(B) treatment with 10 μg/ml TNF-α or 5 μg/ml IL-1Iβ for 3 days. Expression of IL-8 was analysed by qPCR and normalized to untreated control cells in +W+R medium. ns: not significant; *p<0.005, unpaired t-test. […]

[3] = system: ATP4B+ parietal cells in gastric-corpus derived mucosoid cultures; assay: BMP4-induced parietal cell differentiation in corpus-stomach mucosoid culture (ATP4B IF); type: cell-based, human; conditions: 50 ng/ml BMP4 for two weeks, absence of Noggin and EGF; untreated 0,4%

Molecule	IL-8 expression (qPCR) [2]	further results
NCCc1c[nH]cn1 [histamine]		acid production (acridine orange changes to orange) [1]: able to produce acid
IL1-β: recombinant pro-inflammatory cytokine	induced IL-8 preferentially in +W+R cultures	
TNF-α	induced IL-8 expression regardless of W/R	
B1		ATP4B+ parietal cells [3]: 2,4%
